{
  "source": "ChEMBL document CHEMBL5465560",
  "about": "“Selectivity Literature for EUbOPEN Chemogenomic Library” (2024)",
  "key": {"[1]": {"target": "T1, Serine/threonine-protein kinase STK11 (Homo sapiens) (UniProt Q15831)", "T1 sequence (whole entry)": "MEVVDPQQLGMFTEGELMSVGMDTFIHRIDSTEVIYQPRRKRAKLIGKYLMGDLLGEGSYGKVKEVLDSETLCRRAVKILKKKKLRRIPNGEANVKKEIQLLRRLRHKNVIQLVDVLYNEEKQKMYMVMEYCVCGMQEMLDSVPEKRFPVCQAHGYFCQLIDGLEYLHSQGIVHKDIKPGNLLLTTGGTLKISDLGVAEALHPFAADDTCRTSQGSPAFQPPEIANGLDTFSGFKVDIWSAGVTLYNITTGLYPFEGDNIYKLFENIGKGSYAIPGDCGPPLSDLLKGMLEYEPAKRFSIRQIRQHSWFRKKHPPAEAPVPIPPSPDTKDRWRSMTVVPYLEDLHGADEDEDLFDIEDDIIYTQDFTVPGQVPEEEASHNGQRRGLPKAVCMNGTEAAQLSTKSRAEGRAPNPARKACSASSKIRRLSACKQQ", "experiment": "Selectivity interaction (Ambit KINOMEscan and KiNATiv profiling in Jurkat cells) EUB0000090b STK11", "assay_type": "cell-based", "conditions": "at 1 µM"}, "[2]": {"target": "Protein-tyrosine kinase 2-beta (Homo sapiens) (UniProt Q14289)", "sequence (Q14289 whole entry, looked up)": "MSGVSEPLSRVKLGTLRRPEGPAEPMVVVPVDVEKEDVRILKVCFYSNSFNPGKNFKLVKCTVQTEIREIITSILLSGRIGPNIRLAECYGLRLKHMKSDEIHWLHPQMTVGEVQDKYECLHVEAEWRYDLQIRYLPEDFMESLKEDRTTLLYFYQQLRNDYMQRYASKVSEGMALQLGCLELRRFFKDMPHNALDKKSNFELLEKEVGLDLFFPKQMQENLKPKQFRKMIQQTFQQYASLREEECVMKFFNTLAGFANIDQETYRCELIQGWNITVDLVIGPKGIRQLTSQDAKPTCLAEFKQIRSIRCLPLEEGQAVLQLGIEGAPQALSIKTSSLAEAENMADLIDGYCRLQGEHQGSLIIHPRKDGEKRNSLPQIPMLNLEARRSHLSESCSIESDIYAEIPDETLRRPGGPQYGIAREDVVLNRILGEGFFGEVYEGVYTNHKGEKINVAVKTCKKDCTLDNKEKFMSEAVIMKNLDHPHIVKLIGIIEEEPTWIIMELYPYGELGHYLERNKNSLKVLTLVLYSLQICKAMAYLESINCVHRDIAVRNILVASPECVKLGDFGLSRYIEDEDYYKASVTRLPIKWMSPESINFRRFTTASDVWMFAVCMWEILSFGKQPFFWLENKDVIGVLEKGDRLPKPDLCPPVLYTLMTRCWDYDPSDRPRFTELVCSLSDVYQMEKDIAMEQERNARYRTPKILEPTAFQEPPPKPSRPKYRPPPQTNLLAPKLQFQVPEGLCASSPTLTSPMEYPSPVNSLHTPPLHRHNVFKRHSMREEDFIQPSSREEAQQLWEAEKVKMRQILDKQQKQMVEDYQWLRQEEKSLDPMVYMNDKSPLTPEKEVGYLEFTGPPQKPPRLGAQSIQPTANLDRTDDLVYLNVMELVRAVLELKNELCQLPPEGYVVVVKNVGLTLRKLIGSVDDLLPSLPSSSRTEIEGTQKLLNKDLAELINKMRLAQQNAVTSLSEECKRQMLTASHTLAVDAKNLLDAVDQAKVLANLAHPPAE", "experiment": "Selectivity interaction (KinomeScan (DiscoverX)) EUB0001619a PTK2B", "conditions": "at 1 µM"}, "[3]": {"target": "T2, Cyclin-dependent kinase 11A (Homo sapiens) (UniProt Q9UQ88)", "T2 sequence (whole entry)": "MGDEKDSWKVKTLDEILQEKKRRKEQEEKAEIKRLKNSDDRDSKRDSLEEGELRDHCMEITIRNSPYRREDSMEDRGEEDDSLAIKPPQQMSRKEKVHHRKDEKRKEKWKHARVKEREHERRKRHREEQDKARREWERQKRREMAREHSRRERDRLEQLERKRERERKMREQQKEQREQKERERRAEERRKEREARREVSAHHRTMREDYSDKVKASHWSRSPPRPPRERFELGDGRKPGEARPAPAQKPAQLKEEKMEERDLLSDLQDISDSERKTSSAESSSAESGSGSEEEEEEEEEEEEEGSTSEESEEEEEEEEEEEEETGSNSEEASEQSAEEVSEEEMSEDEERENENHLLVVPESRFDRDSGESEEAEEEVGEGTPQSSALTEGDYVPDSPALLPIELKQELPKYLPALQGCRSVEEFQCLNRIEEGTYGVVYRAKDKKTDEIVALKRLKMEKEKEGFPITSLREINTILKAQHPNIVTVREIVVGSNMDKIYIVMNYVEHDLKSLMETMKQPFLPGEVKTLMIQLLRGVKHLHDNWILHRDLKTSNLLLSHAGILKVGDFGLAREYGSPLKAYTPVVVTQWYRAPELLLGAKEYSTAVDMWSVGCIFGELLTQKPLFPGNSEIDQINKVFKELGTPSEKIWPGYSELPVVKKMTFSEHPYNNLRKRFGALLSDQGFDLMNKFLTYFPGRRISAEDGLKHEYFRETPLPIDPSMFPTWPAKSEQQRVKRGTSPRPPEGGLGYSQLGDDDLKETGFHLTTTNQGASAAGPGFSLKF", "experiment": "Selectivity interaction (Kinase panel (KiNativ target engagement assay in Jurkat cells)) EUB0001635a CDK11A", "assay_type": "cell-based", "conditions": "Selectivity number of off-targets 0.0, Selectivity number of targets 233.0, Source Knowledge https://www.sciencedirect.com/science/article/pii/S2451945619300674?via%3Dihub, at 1 µM"}, "[4]": {"target": "T3, Tyrosine-protein kinase ITK/TSK (Homo sapiens) (UniProt Q08881)", "T3 sequence (whole entry)": "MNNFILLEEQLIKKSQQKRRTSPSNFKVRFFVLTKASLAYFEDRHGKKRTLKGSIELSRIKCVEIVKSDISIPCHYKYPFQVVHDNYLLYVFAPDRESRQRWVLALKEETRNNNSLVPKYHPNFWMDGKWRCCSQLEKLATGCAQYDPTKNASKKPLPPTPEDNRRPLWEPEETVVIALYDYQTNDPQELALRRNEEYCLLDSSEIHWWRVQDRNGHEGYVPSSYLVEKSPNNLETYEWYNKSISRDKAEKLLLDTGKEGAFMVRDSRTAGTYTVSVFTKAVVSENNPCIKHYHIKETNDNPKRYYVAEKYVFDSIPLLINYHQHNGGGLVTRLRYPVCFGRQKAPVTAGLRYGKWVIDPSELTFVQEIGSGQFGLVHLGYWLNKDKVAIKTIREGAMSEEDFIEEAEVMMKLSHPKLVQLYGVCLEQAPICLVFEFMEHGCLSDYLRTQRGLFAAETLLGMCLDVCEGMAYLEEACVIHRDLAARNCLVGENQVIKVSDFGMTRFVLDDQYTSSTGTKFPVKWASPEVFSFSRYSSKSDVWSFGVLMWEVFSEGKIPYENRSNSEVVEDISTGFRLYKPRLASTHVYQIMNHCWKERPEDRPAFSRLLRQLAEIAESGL", "experiment": "Selectivity interaction (KinomeScan (DiscoverX)) EUB0000666a ITK", "conditions": "at 10 µM"}, "[5]": {"target": "Serine/threonine-protein kinase Nek4 (Homo sapiens) (UniProt P51957)", "sequence (P51957 whole entry, looked up)": "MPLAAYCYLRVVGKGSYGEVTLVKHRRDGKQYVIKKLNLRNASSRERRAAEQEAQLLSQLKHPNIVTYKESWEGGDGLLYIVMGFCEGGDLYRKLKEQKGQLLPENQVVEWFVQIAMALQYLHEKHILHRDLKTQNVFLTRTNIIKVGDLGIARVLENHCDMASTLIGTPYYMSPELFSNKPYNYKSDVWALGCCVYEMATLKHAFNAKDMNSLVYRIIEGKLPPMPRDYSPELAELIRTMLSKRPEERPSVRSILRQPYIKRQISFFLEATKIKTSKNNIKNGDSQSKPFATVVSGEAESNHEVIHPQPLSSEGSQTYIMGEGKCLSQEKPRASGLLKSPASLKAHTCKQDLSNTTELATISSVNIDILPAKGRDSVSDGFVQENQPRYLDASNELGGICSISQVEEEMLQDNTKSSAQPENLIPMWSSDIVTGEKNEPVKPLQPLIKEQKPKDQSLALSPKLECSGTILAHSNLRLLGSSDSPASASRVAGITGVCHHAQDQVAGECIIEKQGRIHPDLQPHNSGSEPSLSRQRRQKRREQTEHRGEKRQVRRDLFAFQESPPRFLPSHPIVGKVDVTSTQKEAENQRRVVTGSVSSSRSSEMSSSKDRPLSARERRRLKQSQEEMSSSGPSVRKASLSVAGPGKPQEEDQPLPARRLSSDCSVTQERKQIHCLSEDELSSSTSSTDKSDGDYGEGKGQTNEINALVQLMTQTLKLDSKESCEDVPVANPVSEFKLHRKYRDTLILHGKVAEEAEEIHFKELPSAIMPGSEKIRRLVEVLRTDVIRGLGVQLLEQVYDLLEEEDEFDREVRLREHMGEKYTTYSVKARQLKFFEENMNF", "experiment": "Selectivity interaction (KinomeScan (DiscoverX)) EUB0000666a NEK4", "conditions": "at 10 µM"}},
  "data": [
    {"smiles": "CN(C)C/C=C/C(=O)Nc1ccc(C(=O)N2CCCC(Nc3ncc(Cl)c(-c4c[nH]c5ccccc45)n3)C2)cc1", "note": "(stereo not given)", "values": [
      {"measurement": "% of control", "setting": "[1]", "result": 94, "unit": "%"}
    ]},
    {"smiles": "N#Cc1cccc(-c2c[nH]c3ncnc(N4CCOCC4)c23)c1", "values": [
      {"measurement": "% of control", "setting": "[2]", "result": 100, "unit": "%"}
    ]},
    {"smiles": "C=CC(=O)Nc1ccc(C(=O)Nc2[nH]nc3c2CN(C(=O)N[C@H](CN(C)C)c2ccccc2)C3(C)C)cc1", "values": [
      {"measurement": "% of engagement", "setting": "[3]", "result": -15.7, "unit": "%"}
    ]},
    {"smiles": "O=C(NOC[C@H](O)CO)c1ccc(F)c(F)c1Nc1ccc(I)cc1F", "values": [
      {"measurement": "% of control", "setting": "[4]", "result": 97, "unit": "%"},
      {"measurement": "% of control", "setting": "[5]", "result": 78, "unit": "%"}
    ]}
  ]
}
